Measurements taken from PubChem BioAssay (NCI).
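Step 1: Grow cells in 96-well plates. Step 2: Expose to compound for 48 hours at 5 concentrations. Step 3: Interpolate endpoints linearly; if unreached, use highest concentration. The concentration for 50% growth inhibition is given as GI50. TGI: total growth inhibition.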 Where a SMILES comes first, the peptide text is derived from it. The star is where a group is joined. Palmitoyl = CCCCCCCCCCCCCCCC(=O)*

Assays:
Assay in all cases: growth of human tumour cells (NCI), 48 h
UO-31 renal = tested on: UO-31 renal
HL-60(TB) leukemia = tested on: HL-60(TB) leukemia
CAKI-1 renal = tested on: CAKI-1 renal
HT29 colon = tested on: HT29 colon
SNB-75 CNS = tested on: SNB-75 CNS
RPMI-8226 leukemia = tested on: RPMI-8226 leukemia
SNB-19 CNS = tested on: SNB-19 CNS
SK-MEL-5 melanoma = tested on: SK-MEL-5 melanoma
SK-OV-3 ovarian = tested on: SK-OV-3 ovarian
MALME-3M melanoma = tested on: MALME-3M melanoma

For `CCCCCCCCCCCCCCCC(=O)NC(CCCCN)C(=O)NCC(=O)NC(Cc1ccccc1)C(=O)N1CCCC1C(=O)NC(CO)C(=O)NC(Cc1ccc(O)cc1)C(=O)NC(CCCCN)C(=O)NC(CC(C)C)C(=O)NC(CCCN=C(N)N)C(=O)N1CCCC1C(=O)NCC(N)=O` (stereo not given) (Palmitoyl-KGFPSYKLRPG-NH2; configuration not given here), the GI50 (UO-31 renal) was 20.2 µM, the TGI (UO-31 renal) was 49.9 µM and the GI50 (HL-60(TB) leukemia) was 19.1 µM. The TGI (HL-60(TB) leukemia) was 39.9 µM, the GI50 (CAKI-1 renal) was 16.4 µM and the TGI (CAKI-1 renal) was 42.8 µM. It also gave a GI50 (HT29 colon) of 17 µM, a TGI (HT29 colon) of 30.7 µM and a GI50 (SNB-75 CNS) of 22.7 µM. For the same compound, the TGI (SNB-75 CNS) was 49.6 µM, the GI50 (RPMI-8226 leukemia) was 13.1 µM and the TGI (RPMI-8226 leukemia) was 32.5 µM. The GI50 (SNB-19 CNS) was 26.6 µM, the TGI (SNB-19 CNS) was 54.9 µM and the GI50 (SK-MEL-5 melanoma) was 27.7 µM. It also gave a TGI (SK-MEL-5 melanoma) greater than 100 µM, a GI50 (SK-OV-3 ovarian) of 23 µM and a TGI (SK-OV-3 ovarian) of 44.7 µM. It also gave a GI50 (MALME-3M melanoma) greater than 100 µM and a TGI (MALME-3M melanoma) greater than 100 µM.

In the case of `c1csc(-c2ccc(-c3ccc(-c4cccs4)s3)s2)c1`, the TGI (UO-31 renal) is reported as greater than 100 µM, the TGI (HL-60(TB) leukemia) is reported as greater than 100 µM and the TGI (CAKI-1 renal) is reported as greater than 100 µM. For the same compound, the TGI (HT29 colon) was greater than 100 µM, the TGI (SNB-75 CNS) was greater than 100 µM and the TGI (RPMI-8226 leukemia) was greater than 100 µM. For the same compound, the TGI (SNB-19 CNS) was greater than 100 µM, the TGI (SK-MEL-5 melanoma) was greater than 100 µM and the TGI (SK-OV-3 ovarian) was greater than 100 µM. For the same compound, the TGI (MALME-3M melanoma) was greater than 100 µM.

`CCOC(=O)Cc1nc2c(=O)[nH]cnc2n1C1OC(COC(C)=O)C(OC(C)=O)C1OC(C)=O` (stereo not given) gave a TGI (UO-31 renal) greater than 100 µM, a TGI (HL-60(TB) leukemia) greater than 100 µM and a TGI (CAKI-1 renal) greater than 100 µM. The TGI (HT29 colon) was greater than 100 µM, the TGI (SNB-75 CNS) was greater than 100 µM and the TGI (RPMI-8226 leukemia) was greater than 100 µM. The TGI (SNB-19 CNS) was greater than 100 µM, the TGI (SK-MEL-5 melanoma) was greater than 100 µM and the TGI (SK-OV-3 ovarian) was greater than 100 µM. For the same compound, the TGI (MALME-3M melanoma) was greater than 100 µM.

For `O=C(NCCCCl)c1c(O)c2ccccc2[nH]c1=O`, the TGI (UO-31 renal) was greater than 100 µM, the TGI (HL-60(TB) leukemia) was greater than 100 µM and the TGI (CAKI-1 renal) was greater than 100 µM. The TGI (HT29 colon) was greater than 100 µM, the TGI (SNB-75 CNS) was greater than 77.8 µM and the TGI (RPMI-8226 leukemia) was greater than 100 µM. For the same compound, the TGI (SNB-19 CNS) was greater than 100 µM, the TGI (SK-MEL-5 melanoma) was greater than 100 µM and the TGI (SK-OV-3 ovarian) was greater than 100 µM. It also gave a TGI (MALME-3M melanoma) greater than 100 µM.
